Assay results: PubChem BioAssay AID248 (DTP/NCI, 2004)
Values joined by “and” are separate entries in the source; they are usually repeats but may differ in a detail not shown here. Equal values may be shown once. Toxic doses and inconclusive results are not listed. Cut-off read from the data, not from the text of the source: active = T/C of 150% or more; inactive = T/C below 125%.

Test system: L1210 leukemia ip in BDF1 mice, survival T/C
Assay: NCI In Vivo Anticancer Drug Screen. Data for tumor model L1210 Leukemia (intraperitoneal) in B6D2F1 (BDF1) mice
Settings: endpoint: mean survival time, higher = longer survival
In short: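 Transplanted-tumor mice were given test agent; controls received vehicle only. Survival readings from the two groups were divided (treated over control).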

[1] = dose: 100.0 mg/kg/injection, schedule: Q01DX001 (ip), vehicle: saline
[2] = dose: 100.0 mg/kg/injection, schedule: Q01DX009 (ip), vehicle: saline with Tween-80
[3] = dose: 200.0 mg/kg/injection, schedule: Q01DX009 (ip), vehicle: saline with Tween-80
[4] = dose: 100.0 mg/kg/injection, schedule: Q01DX009 (ip), vehicle: Klucel (hydroxypropylcellulose) (HPC)
[5] = dose: 100.0 mg/kg/injection, schedule: Q04DX003 (ip), vehicle: Klucel (hydroxypropylcellulose) (HPC)
[6] = dose: 200.0 mg/kg/injection, schedule: Q01DX009 (ip), vehicle: Klucel (hydroxypropylcellulose) (HPC)
[7] = dose: 200.0 mg/kg/injection, schedule: Q04DX003 (ip), vehicle: Klucel (hydroxypropylcellulose) (HPC)
[8] = dose: 400.0 mg/kg/injection, schedule: Q01DX009 (ip), vehicle: Klucel (hydroxypropylcellulose) (HPC)
[9] = dose: 400.0 mg/kg/injection, schedule: Q04DX003 (ip), vehicle: Klucel (hydroxypropylcellulose) (HPC)
[10] = dose: 100.0 mg/kg/injection, schedule: Q01DX001 (ip), vehicle: carboxymethylcellulose (CMC)
[11] = dose: 200.0 mg/kg/injection, schedule: Q01DX001 (ip), vehicle: carboxymethylcellulose (CMC)
[12] = dose: 400.0 mg/kg/injection, schedule: Q01DX001 (ip), vehicle: carboxymethylcellulose (CMC)
[13] = dose: 50.0 mg/kg/injection, schedule: Q04DX003 (ip), vehicle: Klucel (hydroxypropylcellulose) (HPC)
[14] = dose: 200.0 mg/kg/injection, schedule: Q01DX001 (ip), vehicle: saline
[15] = dose: 75.0 mg/kg/injection, schedule: Q01DX001 (ip), vehicle: saline
[16] = dose: 150.0 mg/kg/injection, schedule: Q01DX001 (ip), vehicle: saline

Measured: T/C

C=C1C(=O)OC2CC3(C)C(O)CCC(=C)C3C(OC(C)=O)C12 (centres undefined) (tested in a mixture with another compound)
inactive: [1] 104 % of control

O=C(CNC(c1ccccc1)(c1ccccc1)c1ccccc1)OC(c1ccccc1)c1ccccc1
inactive: [2] 86 % of control | dose: 100.0 mg/kg/injection, schedule: Q04DX003 (ip), vehicle: saline sonified 106 % of control | [3] 89 % of control | dose: 200.0 mg/kg/injection, schedule: Q04DX003 (ip), vehicle: saline sonified 92 % of control | dose: 400.0 mg/kg/injection, schedule: Q04DX003 (ip), vehicle: saline sonified 97 % of control

C=C(C)c1cc2c(cc1O)OCC2C (centres undefined)
inactive: dose: 50.0 mg/kg/injection, schedule: Q01DX009 (ip), vehicle: Klucel (hydroxypropylcellulose) (HPC) 101 % of control | [4] 92 % of control and 96 % of control | [5] 107 % of control | [6] 86 % of control and 89 % of control | [7] 94 % of control | [8] 96 % of control | [9] 94 % of control

CCCCCCCC(=O)Nc1cccc(C)c1C
inactive: dose: 100.0 mg/kg/injection, schedule: Q04DX003 (ip), vehicle: saline with Tween-80 101 % of control | dose: 200.0 mg/kg/injection, schedule: Q04DX003 (ip), vehicle: saline with Tween-80 87 % of control | dose: 400.0 mg/kg/injection, schedule: Q04DX003 (ip), vehicle: saline with Tween-80 101 % of control

NS(=O)(=O)c1ccc(NC(=O)Nc2ccccc2)cc1
inactive: [4] 92 % of control | [6] 97 % of control

O=c1nc2c3ncn(Cc4ccccc4)c3nnn2[nH]1
inactive: [10] 100 % of control | [11] 106 % of control | [12] 100 % of control

CC(=O)Nc1ccc(OC(=O)Nc2cccc(Cl)c2Cl)cc1
inactive: [4] 102 % of control | [6] 101 % of control | [8] 97 % of control

O=C(O)c1c[nH]c(=O)c([N+](=O)[O-])c1
inactive: [13] 97 % of control | [5] 91 % of control | [7] 92 % of control

O=C(Nc1cccc2ccccc12)c1ccc(Cl)c(Cl)c1
inactive: [4] 104 % of control | [6] 100 % of control | [8] 98 % of control

CCCCSc1nc2ccccc2c(=O)n1-c1ccccc1
inactive: dose: 100.0 mg/kg/injection, schedule: Q01DX001 (ip), vehicle: saline with Tween-80 100 % of control | dose: 200.0 mg/kg/injection, schedule: Q01DX001 (ip), vehicle: saline with Tween-80 103 % of control | dose: 400.0 mg/kg/injection, schedule: Q01DX001 (ip), vehicle: saline with Tween-80 97 % of control

COc1ccc(N2C(=O)OC3(CCN(CCCC(=O)c4ccccc4)CC3)C2=O)cc1
inactive: [5] 101 % of control | [7] 98 % of control | [9] 92 % of control

COC(=O)C(Cc1c[nH]c2ccccc12)[N+](C)(C)C (centres undefined)
inactive: dose: 35.0 mg/kg/injection, schedule: Q01DX Z (ip), vehicle: saline 95 % of control | dose: 50.0 mg/kg/injection, schedule: Q01DX Z (ip), vehicle: saline 97 % of control

Cc1ncc(CO)n1Cc1ccccc1
inactive: dose: 100.0 mg/kg/injection, schedule: Q01DX001 (ip), vehicle: Klucel (hydroxypropylcellulose) (HPC) 104 % of control | dose: 200.0 mg/kg/injection, schedule: Q01DX001 (ip), vehicle: Klucel (hydroxypropylcellulose) (HPC) 104 % of control | dose: 400.0 mg/kg/injection, schedule: Q01DX001 (ip), vehicle: Klucel (hydroxypropylcellulose) (HPC) 114 % of control

CC/C(=C(\CC)c1ccc(OC)cc1)c1ccc(O)cc1
inactive: dose: 15.0 mg/kg/injection, schedule: Q01DX Z (sc), vehicle: steriod suspending solution 105 % of control | dose: 30.0 mg/kg/injection, schedule: Q01DX Z (sc), vehicle: steriod suspending solution 106 % of control | dose: 60.0 mg/kg/injection, schedule: Q01DX Z (sc), vehicle: steriod suspending solution 96 % of control and 103 % of control | dose: 90.0 mg/kg/injection, schedule: Q01DX Z (sc), vehicle: steriod suspending solution 103 % of control | dose: 135.0 mg/kg/injection, schedule: Q01DX Z (sc), vehicle: steriod suspending solution 102 % of control | [14] 96 % of control | dose: 200.0 mg/kg/injection, schedule: Q01DX Z (sc), vehicle: steriod suspending solution 100 % of control | dose: 250.0 mg/kg/injection, schedule: Q01DX015 (sc), vehicle: steriod suspending solution 97 % of control | dose: 400.0 mg/kg/injection, schedule: Q01DX001 (ip), vehicle: saline 104 % of control | dose: 500.0 mg/kg/injection, schedule: Q01DX015 (sc), vehicle: steriod suspending solution 93 % of control | dose: 750.0 mg/kg/injection, schedule: Q01DX015 (sc), vehicle: steriod suspending solution 95 % of control | dose: 800.0 mg/kg/injection, schedule: Q01DX001 (ip), vehicle: saline 98 % of control | dose: 1000.0 mg/kg/injection, schedule: Q01DX015 (sc), vehicle: steriod suspending solution 90 % of control

CC(C)OC(CCCl)c1ccccc1 (centres undefined)
inactive: [4] 91 % of control | [5] 96 % of control | [6] 96 % of control | [7] 102 % of control | [8] 95 % of control | [9] 96 % of control

CN(N=O)C(=O)N(C)C(=O)N(C)N=O
inactive: dose: 6.25 mg/kg/injection, schedule: Q01DX Z (ip), vehicle: carboxymethylcellulose (CMC) 104 % of control | dose: 12.5 mg/kg/injection, schedule: Q01DX Z (ip), vehicle: carboxymethylcellulose (CMC) 112 % of control | dose: 25.0 mg/kg/injection, schedule: Q01DX Z (ip), vehicle: carboxymethylcellulose (CMC) 108 % of control | dose: 50.0 mg/kg/injection, schedule: Q01DX Z (ip), vehicle: carboxymethylcellulose (CMC) 92 % of control

COc1ccc([N+](=O)[O-])cc1C(F)(F)F
inactive: [2] 96 % of control | [3] 97 % of control | dose: 400.0 mg/kg/injection, schedule: Q01DX009 (ip), vehicle: saline with Tween-80 93 % of control

COC(=O)c1cc(O)c(C(=O)OC)s1
inactive: [4] 101 % of control | [6] 98 % of control | [8] 95 % of control

Nc1nc2ccccc2nc1N
inactive: dose: 50.0 mg/kg/injection, schedule: Q01DX009 (ip), vehicle: saline 96 % of control | dose: 50.0 mg/kg/injection, schedule: Q04DX003 (ip), vehicle: saline 105 % of control | dose: 100.0 mg/kg/injection, schedule: Q01DX009 (ip), vehicle: saline 104 % of control | dose: 100.0 mg/kg/injection, schedule: Q04DX003 (ip), vehicle: saline 101 % of control | dose: 200.0 mg/kg/injection, schedule: Q04DX003 (ip), vehicle: saline 108 % of control

Cc1ccc2nc(N=C(N)N)[nH]c2c1
inactive: [15] 93 % of control | [16] 94 % of control

CC(=O)Nc1ccc(/C=N/NC(=O)C(O)(c2ccccc2)c2ccccc2)cc1
inactive: [10] 97 % of control | [11] 103 % of control | [12] 97 % of control

CC(C)CNCc1cc([N+](=O)[O-])ccc1O
inactive: [15] 100 % of control | [16] 97 % of control | dose: 300.0 mg/kg/injection, schedule: Q01DX001 (ip), vehicle: saline 94 % of control

Nc1ccc(N=Nc2ccc(OCCN(CCO)CCO)cc2)c(N)n1
inactive: [1] 93 % of control | [14] 98 % of control

COc1ccc(Cl)cc1NC(=O)Nc1cc(Cl)c(Cl)cc1C
inactive: [4] 102 % of control | [5] 95 % of control | [6] 100 % of control | [7] 94 % of control | [8] 97 % of control | [9] 94 % of control

CCC(=O)c1ccc(N=Nc2c(N)nc(N)[nH]c2=O)cc1
inactive: [10] 101 % of control | [11] 108 % of control | [12] 103 % of control

CCC(CC)(COC(N)=O)COC(N)=O
inactive: dose: 25.0 mg/kg/injection, schedule: Q04DX003 (ip), vehicle: Klucel (hydroxypropylcellulose) (HPC) 98 % of control | [13] 93 % of control | [5] 98 % of control | [7] 95 % of control | [9] 93 % of control
